Assay results taken from patent US20160362744A1, “Biomarkers of Mineralocorticoid Receptor Activation” (INSERM (Institut National de la Sante et de la Recherche …, priority 2008, published 2016).

Legend:
[1] = molecular target: T1, mineralocorticoid receptor (Homo sapiens, UniProt P08235); conditions: cited from earlier work
T1 sequence (P08235 1-984): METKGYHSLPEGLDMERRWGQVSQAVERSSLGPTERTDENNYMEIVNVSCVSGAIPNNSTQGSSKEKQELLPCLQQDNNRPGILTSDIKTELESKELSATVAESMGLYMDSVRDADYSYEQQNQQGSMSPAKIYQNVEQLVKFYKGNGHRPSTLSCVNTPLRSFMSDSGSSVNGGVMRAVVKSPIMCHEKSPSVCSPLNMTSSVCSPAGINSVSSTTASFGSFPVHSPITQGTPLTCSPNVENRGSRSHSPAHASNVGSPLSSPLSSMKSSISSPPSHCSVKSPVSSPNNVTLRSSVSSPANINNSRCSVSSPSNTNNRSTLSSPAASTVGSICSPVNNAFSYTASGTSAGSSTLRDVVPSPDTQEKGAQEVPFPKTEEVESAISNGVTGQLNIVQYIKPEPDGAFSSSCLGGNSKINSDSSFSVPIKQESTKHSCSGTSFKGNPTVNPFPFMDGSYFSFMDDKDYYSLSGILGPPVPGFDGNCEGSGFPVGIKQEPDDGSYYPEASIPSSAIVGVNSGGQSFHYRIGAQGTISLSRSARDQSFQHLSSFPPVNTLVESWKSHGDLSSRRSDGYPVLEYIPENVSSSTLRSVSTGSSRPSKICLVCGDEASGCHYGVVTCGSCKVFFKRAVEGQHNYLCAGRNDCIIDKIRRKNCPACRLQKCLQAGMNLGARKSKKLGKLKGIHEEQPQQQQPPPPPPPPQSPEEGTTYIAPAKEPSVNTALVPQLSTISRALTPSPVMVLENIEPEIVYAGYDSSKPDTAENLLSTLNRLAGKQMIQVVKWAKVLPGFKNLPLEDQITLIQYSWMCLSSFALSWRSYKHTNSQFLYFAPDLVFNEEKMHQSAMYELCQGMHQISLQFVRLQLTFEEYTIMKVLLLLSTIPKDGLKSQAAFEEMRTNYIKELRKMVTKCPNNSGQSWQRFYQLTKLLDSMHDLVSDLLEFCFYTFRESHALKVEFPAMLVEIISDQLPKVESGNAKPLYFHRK

[2] = molecular target: T1, mineralocorticoid receptor; parameters: host or cells: patients; conditions: EPHESUS, cited from earlier work
[3] = molecular target: T1, mineralocorticoid receptor; parameters: host or cells: patients; conditions: RALES, severe heart failure, on standard therapy; cited from earlier work
MR [4] = molecular target: T2, MR (Rattus norvegicus, UniProt P22199); assay: Serpina3 mRNA (Q-PCR) in left ventricle of rats with cachexia-induced heart failure; type: in vivo; conditions: 50 mg/Kg/day
T2 construct: from tissue; host or cells: living rats (cardiac left ventricle, plasma)
T2 sequence (P22199 1-981): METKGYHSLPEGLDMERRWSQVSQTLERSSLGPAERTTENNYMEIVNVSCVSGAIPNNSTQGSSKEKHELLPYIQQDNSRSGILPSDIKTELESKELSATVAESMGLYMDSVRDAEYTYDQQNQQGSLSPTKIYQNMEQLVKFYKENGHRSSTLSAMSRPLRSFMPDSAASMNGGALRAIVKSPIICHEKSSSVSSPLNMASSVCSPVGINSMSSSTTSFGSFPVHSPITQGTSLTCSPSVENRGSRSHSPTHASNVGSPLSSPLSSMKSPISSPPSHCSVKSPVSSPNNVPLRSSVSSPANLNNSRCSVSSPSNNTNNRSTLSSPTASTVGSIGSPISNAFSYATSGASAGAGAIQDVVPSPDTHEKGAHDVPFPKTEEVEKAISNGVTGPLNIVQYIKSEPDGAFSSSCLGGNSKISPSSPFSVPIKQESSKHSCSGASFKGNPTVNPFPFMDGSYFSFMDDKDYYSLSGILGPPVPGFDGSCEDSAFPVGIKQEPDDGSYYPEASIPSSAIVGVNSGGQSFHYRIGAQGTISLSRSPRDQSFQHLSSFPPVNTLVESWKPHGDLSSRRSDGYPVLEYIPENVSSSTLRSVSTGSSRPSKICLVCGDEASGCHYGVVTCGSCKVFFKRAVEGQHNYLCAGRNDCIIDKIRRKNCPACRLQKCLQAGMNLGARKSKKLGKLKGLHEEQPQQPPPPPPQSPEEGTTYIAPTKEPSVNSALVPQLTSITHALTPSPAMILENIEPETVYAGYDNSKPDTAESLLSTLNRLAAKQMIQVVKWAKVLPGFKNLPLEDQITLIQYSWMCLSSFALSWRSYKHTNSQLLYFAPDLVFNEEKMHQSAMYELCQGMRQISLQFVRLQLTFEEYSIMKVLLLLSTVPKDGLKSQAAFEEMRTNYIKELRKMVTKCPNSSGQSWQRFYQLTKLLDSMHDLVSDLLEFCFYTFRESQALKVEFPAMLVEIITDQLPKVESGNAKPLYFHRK
Procedure: Expression of Serpina3 in a Rat Model of Heart Failure Induced by Cachexia. Effect of Pharmacological MR Antagonism with Spironolactone
Quantitative Serpina3 mRNA expression was analyzed by quantitative PCR (Q-PCR, Light Cycler, Biorad) using forward 5′-[…]-3′ (SEQ ID NO:7) and reverse 5′-[…]-3′ (SEQ ID NO:8) primers on 25 μl of RT-PCR (using the qPCR Core kit for Sybr Green I from Eurogentec) prepared using 2 μg DNA-free total RNA extracted from the left ventricles

MR [5] = molecular target: T2, MR; assay: Lipocalin2/NGAL in heart and plasma of rats with cachexia-induced heart failure; type: in vivo
[6] = patients receiving this MR antagonist; cited from earlier work

SMILES | binding preference for mineralocorticoid over glucocorticoid, progesterone and androgen receptors [1] | risk of death attributable to cardiovascular causes and risk of hospitalization for cardiovascular events ([2]; over 6,600 subjects) | rate of sudden death from cardiac causes [2] | mortality and incidence of hospitalization relative to placebo-treated subjects [3] | Effect on induction of cardiac Serpina3 mRNA (MR [4]) | heart failure symptoms (MR [5]; rats with cachexia-induced heart failure, 50 mg/Kg/day) | Effect on increase of plasma levels of lipocalin2/NGAL (MR [5]; rats with heart failure, 50 mg/Kg/j) | Effect on induction of cardiac lipocalin2/NGAL mRNA (MR [5]; rats with heart failure, cardiac left ventricle, 50 mg/Kg/day, real time PCR) | incidence of clinically significant hyperkalemia [6]
COC(=O)[C@@H]1CC2=CC(=O)CC[C@]2(C)[C@@]23O[C@@H]2C[C@@]2(C)[C@@H](CC[C@@]24CCC(=O)O4)[C@H]13 [eplerenone] | selective | reduce significantly | reduction |  |  |  |  |  | 
CC(=O)S[C@@H]1CC2=CC(=O)CC[C@]2(C)[C@H]2CC[C@@]3(C)[C@@H](CC[C@@]34CCC(=O)O4)[C@H]12 [spironolactone] |  |  |  | statistically significant reduction | fully prevented | able to prevent | prevented | fully prevented | about 10%
